{"source": "patent US20090074785A1", "about": "“Compositions and methods for treatment of colorectal cancer” (priority 2007, published 2009)", "key": {"IBABP-L": {"system": "IBABP-L", "test": "Regulation of expression of IBABP-L in Caco-2 cells, quantitative RT-PCR", "assay_type": "cell-based, human", "details": "24 h", "experimental": "(§1) The expression of IBABP-L and IBABP was measured by quantitative RT-PCR. The mRNA copy number of each variant is normalized to the expression the housekeeping gene ARPP0. Values in the figure represent the average of three experiments with each replicate performed in duplicate.\n(§2) To determine the relative expression levels of IBABP-L and IBABP, a two-step quantitative RT-PCR procedure was used. In the first step, complementary DNA (cDNA) was synthesized from total RNA. […] In the second step, quantitative PCR (QPCR) was carried out on a Mx 3000P Real-Time PCR System (Stratagene, La Jolla, Calif.) using a solution containing diluted cDNA (1:20; 2.0 μl), 1×SYBR Green PCR Master Mix (Applied Biosystems, Foster City, Calif.), and primers for IBABP-L, IBABP, or ARPP0 (0.25 μM). […]\n(§3) Regulation of expression of the IBABP variants in Caco-2 cells. […] Cells were harvested, cellular RNA was isolated using the RNeasy Mini Kit (Qiagen) according to manufacturer instruction, and expression of IBABP variants was determined by QPCR as described above.\n(§4) Bile acids differentially regulate the variants of IBABP. […] Caco-2 cells were treated with either chenodeoxycholic acid (CDCA), deoxycholic acid (DCA), or 9cRA, and the relative expression of transcripts encoding IBABP-L and IBABP was measured by quantitative RT-PCR (FIG. 10)."}, "BAR (FXR, NR1H4)": {"target": "T1, BAR (FXR, NR1H4) (Homo sapiens, UniProt Q96RI1)", "T1 sequence (Q96RI1 1-486)": "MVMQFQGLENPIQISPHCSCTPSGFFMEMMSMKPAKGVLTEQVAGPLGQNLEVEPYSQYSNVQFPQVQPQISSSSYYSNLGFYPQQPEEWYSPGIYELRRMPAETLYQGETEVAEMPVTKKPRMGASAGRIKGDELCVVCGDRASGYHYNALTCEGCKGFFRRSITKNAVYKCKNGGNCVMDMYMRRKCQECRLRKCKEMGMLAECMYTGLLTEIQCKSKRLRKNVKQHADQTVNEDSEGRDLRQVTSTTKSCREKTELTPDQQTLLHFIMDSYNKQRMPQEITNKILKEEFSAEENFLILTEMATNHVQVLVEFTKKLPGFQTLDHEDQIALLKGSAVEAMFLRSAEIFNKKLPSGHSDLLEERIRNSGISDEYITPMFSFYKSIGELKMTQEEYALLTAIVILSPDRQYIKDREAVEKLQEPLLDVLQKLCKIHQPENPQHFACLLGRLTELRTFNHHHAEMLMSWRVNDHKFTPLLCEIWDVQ", "details": "gene-selective BAR modulator; cited from earlier work"}, "IBABP-L promoter": {"system": "IBABP-L promoter", "test": "IBABP-L promoter luciferase reporter in HCT 116 cells", "assay_type": "cell-based, human", "details": "25 ng/ml for 5 hr, HCT116 cells", "experimental": "To verify that NF-κB binds the response element and drives the expression of IBABP-L, a number of studies were performed with deletions and mutations of the promoter linked to a reporter gene (PGL3-Basic Luciferase), as shown in FIG. 18. These studies were performed in HCT 116 colon cancer cells, which have elevated expression of IBABP-L. The region containing the putative NF-κB binding motif (−1563/+78) was amplified from human genomic DNA by PCR. Deletion constructs of this promoter were made through PCR or restriction enzyme digestion. The G C mutation was made through site-directed mutagenesis. The wild type and modified promoters were inserted into PGL3 vector containing firefly Luciferase (Luc) reporter (Promega). Reporter vectors were constructed to either delete the entire putative NF-κB binding motif, or mutate the most conserved “G” to “C” within this motif. The wild type promoter and modified reporters were introduced into HCT 116 cells, and luciferase activity was analyzed at 24 hr.\nAs shown in FIGS. 19A-C, a functional analysis of the IBABP-L promoter was performed. […] The luciferase activity was measured in 24 h and normalized to the Renilla signal in the absence of the IBABP-L promoter. […] Luciferase activity was measured in 24 hr and normalized. pRL-CMV was included in every transfection. […]"}, "IBABP": {"system": "IBABP", "test": "Regulation of expression of IBABP in Caco-2 cells, quantitative RT-PCR", "assay_type": "cell-based, human", "details": "100 nM, 24 h", "experimental": "as §1, §2, §3, §4"}}, "data": [{"compound": "C[C@H](CCC(=O)O)[C@H]1CC[C@H]2[C@@H]3[C@H](O)C[C@@H]4C[C@H](O)CC[C@]4(C)[C@H]3CC[C@]12C", "note": "[CDCA, chenodeoxycholic acid]", "values": [{"measurement": "effect on expression of IBABP-L", "setting": "IBABP-L; 100 μM, normalized to ARPP0", "value": "without effect"}]}, {"compound": "CCCCCCOc1c(\\C(C)=C/C=C/C(C)=C/C(=O)O)cc(C(C)C)cc1C(C)C", "note": "[AGN34]", "values": [{"measurement": "activity on CYP7A1", "setting": "BAR (FXR, NR1H4)", "value": "agonist"}, {"measurement": "activity on IBABP", "setting": "BAR (FXR, NR1H4)", "value": "antagonist"}, {"measurement": "activity on SHP", "setting": "BAR (FXR, NR1H4)", "value": "neutral"}]}, {"compound": "tumor necrosis factor α [TNFα]", "values": [{"measurement": "transcription activity of the wild type IBABP-L promoter", "setting": "IBABP-L promoter", "value": "increased"}, {"measurement": "transcription activity of the mutated IBABP-L promoter", "setting": "IBABP-L promoter; G to C mutation in NF-κB motif", "value": "not the mutated promoter"}]}, {"compound": "CC1=C(/C=C/C(C)=C\\C=C\\C(C)=C\\C(=O)O)C(C)(C)CCC1", "note": "[9cRA, 9-cis-retinoic acid]", "values": [{"measurement": "effect on expression of IBABP", "setting": "IBABP", "value": "up-regulated"}, {"measurement": "effect on expression of IBABP-L", "setting": "IBABP-L; 100 nM", "value": "without effect"}]}]}
